# Test system: nursery piglets
# Experiment: Feeding study in weaned nursery piglets
# Assay type: in vivo, pig
# Description: The test materials used in the study were the Souroubea gilgii and purified betulinic acid. The Souroubea gigli plant samples (labelled SS for Souroubea sp.) were harvested from the canals in Tortuguero, Costa Rica. The samples were chipped, dried and powdered. Samples were dried overnight in a commercial plant drier at 35° C. and ground to 1 mm mesh.
# The objective of the study was to investigate the production performance and stress related responses in nursery piglets that were fed a supplemented of either dried Souroubea gilgii plant material (SS) or one of its active anxiolytic compounds, purified betulinic acid (BA). The following parameters were evaluated: (1) plasma levels of Acute Phase Proteins (APP) and cortisol, (2) behavioral and stress related aggressive interactions and injuries (aggressive pushing, number of fights and the duration of fights in seconds), (3) production performance parameters (average daily gain (ADG), feed intake, feed efficiency (kg feed/kg body weight gain)) and (4) health evaluation (incidence of disease, disease treatments and deaths).
# The study included 300 piglets that were 21 days of age at the start of the experiment (day of weaning and first day of treatment). The piglets were treated at days 0 and 21 and monitored over a 39 day period. The pigs were 60 days of age at the end of the study. Pigs were randomly assigned to one of five treatment groups, with 60 pigs in each group: (1) Group A. untreated control, (2) Group B. 0.5 mg BA/kg body weight, (3) Group C. 1 mg BA/kg body weight, (4) Group D. 2 mg BA/kg body weight and (5) Group E. SS group, 500 mg ground SS leaves/kg body weight (BA concentration equivalent to 0.5 mg BA/kg body weight).
# Blood samples from 8 pigs in each treatment group were drawn on days 0, 2, 7, 14, 21 and 39 for a total of 240 blood samples, to determine plasma APP and cortisol levels. The same pigs from each treatment group were used for each blood sample day. Pigs were also weighed and feed intake was measured on these days to calculate performance parameters.
smiles,measurement,setting,value
"C=C(C)[C@@H]1CC[C@]2(C(=O)O)CC[C@]3(C)[C@H](CC[C@@H]4[C@@]5(C)CC[C@H](O)C(C)(C)[C@@H]5CC[C@]43C)[C@@H]12 [BA, betulinic acid]",number of wounds,2 mg/kg (Group D),appeared to reduce
same,aggressive behavior and extent of injuries,BA doses below 2 mg/kg,little effect
same,plasma cortisol levels,"day 2, Group C 1 mg/kg BA, vs Groups A and B, p<0.01",significantly lower
same,plasma cortisol levels,"day 2, Group D 2 mg/kg BA, vs Groups A and B, p<0.01",significantly lower
same,plasma cortisol levels,"days 7 and 14, Group D 2 mg BA/kg, vs Group A, p<0.05",significantly lower
same,plasma cortisol levels,"first 14 days post-weaning, 2 mg BA/kg",significantly reduced
same,dose required to reduce plasma cortisol in the first days after weaning,piglets,1 mg BA/kg
